Values quoted from earlier work in publication PMC6379498, “Radiosynthesis and in vivo evaluation of ^11C-labeled BMS-193885 and its desmethyl analog as PET tracers for neuropeptide Y1 receptors” (EJNMMI Radiopharmacy and Chemistry, 2019).
Like-named read-outs stand apart in the source and are kept apart here.

Key:
[1] = design: method as in Antal-Zimanyi et al. [2008]; conditions: rats, ref Antal-Zimanyi et al. [2008]; cited from earlier work
NPY Y1-R = target: NPY Y1-R; design: method as in Poindexter et al. [2002]; conditions: ref Poindexter et al. [2002]; cited from earlier work
[2] = design: method as in Antal-Zimanyi et al. [2008]; conditions: ref Antal-Zimanyi et al. [2008]; cited from earlier work
animal models of obesity = test system: animal models of obesity; design: method as in Antal-Zimanyi et al. [2008]; conditions: acute and chronic administration, ref Antal-Zimanyi et al. [2008]; cited from earlier work
[3] = design: method as in Poindexter et al. [2002]; conditions: in vitro, unlabeled 1, ref Poindexter et al. [2002]; cited from earlier work
[4] = design: method as in Antal-Zimanyi et al. [2008]; conditions: dogs, ref Antal-Zimanyi et al. [2008]; cited from earlier work

| Structure (SMILES) | Adverse cardiovascular effects [1] | Ki (NPY Y1-R) | Brain penetration [2] | Oral bioavailability [2] | Systemic bioavailability [2] | Body weight (animal models of obesity) | Food intake (animal models of obesity) | Stability in rat liver microsomes [3] | Adverse cardiovascular effects [4] |
| --- | --- | --- | --- | --- | --- | --- | --- | --- | --- |
| COC(=O)C1=C(C)NC(C)=C(C(=O)OC)C1c1cccc(NC(=O)NCCCN2CCC(c3cccc(OC)c3)CC2)c1 [Compound 1] | no serious adverse cardiovascular effects | 3.3 nM | good | lacks oral bioavailability | good | reduced | reduced | good stability | no serious adverse cardiovascular effects |
| COC(=O)C1=C(C)NC(C)=C(C(=O)OC)C1c1cccc(NC(=O)NCCCN2CCC(c3cccc(O)c3)CC2)c1 [Compound 2, Dimethyl 4-(3-(3-(3-(4-(3-hydroxyphenyl)piperidin-1-yl)propyl)ureido)phenyl)-2,6-dimethyl-1,4-dihydropyridine-3,5-dicarboxylate] | – | 2.7 nM | – | – | – | – | – | – | – |
